pKi: −log10 of the molar value.
biological target: human PDE10A2 (Homo sapiens (Human), UniProt Q9Y233); experiment: PDE10 fluorescence polarization (IMAP FP) inhibition assay; format: biochemical; details: human PDE10A2 from transfected AD293 cells; FAM-labeled cAMP 50 nM; apparent inhibition constant; read-out: PDE10A Ki
Method: The activity of the compounds in accordance with the present invention as PDE10 inhibitors may be readily determined without undue experimentation using a fluorescence polarization (FP) methodology that is well known in the art (Huang, W., et al., J. Biomol Screen, 2002, 7: 215).
In a typical experiment the PDE10 inhibitory activity of the compounds of the present invention was determined in accordance with the following experimental method. PDE10A2 was amplified from human fetal brain cDNA (Clontech, Mountain View, Calif.) using a forward primer corresponding to nucleotides 56-77 of human PDE10A2 (Accession No. AF127480, Genbank Identifier 4894716), containing a Kozak consensus sequence, and a reverse primer corresponding to nucleotides 2406-2413 of human PDE10A2 (Accession No. AF127480, Genbank Identifier 4894716). Amplification with Easy-A polymerase (Stratagene, La Jolla, Calif.) was 95° C. for 2 minutes followed by thirty three cycles of 95° C. for 40 seconds, 55° C. for 30 seconds, and 72° C. for 2 minutes 48 seconds. Final extension was 72° C. for 7 minutes. The PCR product was TA cloned into pcDNA3.2-TOPO (Invitrogen, Carlsbad, Calif.) according to standard protocol. AD293 cells with 70-80% confluency were transiently transfected with human PDE10A2/pcDNA3.2-TOPO using Lipofectamine 2000 according to manufacturer specifications (Invitrogen, Carlsbad, Calif.). Cells were harvested 48 hours post-transfection and lysed by sonication (setting 3, 10×5 sec pulses) in a buffer containing 20 mM HEPES, 1 mM EDTA and protease inhibitor cocktail (Roche). Lysate was collected by centrifugation at 75,000×g for 20 minutes. Supernatant containing the cytoplasmic fraction was used for evaluation of PDE10A2 activity. The fluorescence polarization assay for cyclic nucleotide phosphodiesterases was performed using an IMAP® FP kit supplied by Molecular Devices, Sunnyvale, Calif. (product # R8139). IMAP® technology has been applied previously to phosphodiesterase assays (Huang, W., et al., J. Biomol Screen, 2002, 7: 215). Assays were performed at room temperature in 384-well microtiter plates with an incubation volume of 20.2 μL. Solutions of test compounds were prepared in DMSO and serially diluted with DMSO to yield 8 μL of each of 10 solutions differing by 3-fold in concentration, at 32 serial dilutions per plate. […] 0% of inhibition is determined by using DMSO (1% final concentrations).
A Labcyte Echo 555 (Labcyte, Sunnyvale, Calif.) is used to dispense 200 nL from each well of the titration plate to the 384 well assay plate. A solution of enzyme (1/1600 dilution from aliquots; sufficient to produce 20% substrate conversion) and a separate solution of FAM-labeled cAMP PDE from Molecular Devices (product # R7506), at a final concentration of 50 nM are made in the assay buffer (10 mM Tris HCl, pH 7.2, 10 mM MgCl2, 0.05% NaN3 0.01% Tween-20, and 1 mM DTT). The enzyme and the substrate are then added to the assay plates in two consecutive additions of 10 μL, and then shaken to mix. The reaction is allowed to proceed at room temperature for 30 minutes. […] The enzymatic reaction is stopped by addition of 60 μL of the binding solution to each well of the assay plates and the plates are sealed and shaken for 10 seconds. The plate was incubated at room temperature for at least one hour prior to determining the fluorescence polarization (FP). The parallel and perpendicular fluorescence of each well of the plate was measured using a Perkin Elmer EnVision™ plate reader (Waltham, Mass.).
Fluorescence polarization (mP) was calculated from the parallel (S) and perpendicular (P) fluorescence of each sample well and the analogous values for the median control well, containing only substrate (So and Po), using the following equation: Polarization(mP)=1000*(S/So−P/Po)/(S/So+P/Po).
Dose-inhibition profiles for each compound were characterized by fitting the mP data to a four-parameter equation given below.

human PDE10A2, sequence (Q9Y233 267-1055): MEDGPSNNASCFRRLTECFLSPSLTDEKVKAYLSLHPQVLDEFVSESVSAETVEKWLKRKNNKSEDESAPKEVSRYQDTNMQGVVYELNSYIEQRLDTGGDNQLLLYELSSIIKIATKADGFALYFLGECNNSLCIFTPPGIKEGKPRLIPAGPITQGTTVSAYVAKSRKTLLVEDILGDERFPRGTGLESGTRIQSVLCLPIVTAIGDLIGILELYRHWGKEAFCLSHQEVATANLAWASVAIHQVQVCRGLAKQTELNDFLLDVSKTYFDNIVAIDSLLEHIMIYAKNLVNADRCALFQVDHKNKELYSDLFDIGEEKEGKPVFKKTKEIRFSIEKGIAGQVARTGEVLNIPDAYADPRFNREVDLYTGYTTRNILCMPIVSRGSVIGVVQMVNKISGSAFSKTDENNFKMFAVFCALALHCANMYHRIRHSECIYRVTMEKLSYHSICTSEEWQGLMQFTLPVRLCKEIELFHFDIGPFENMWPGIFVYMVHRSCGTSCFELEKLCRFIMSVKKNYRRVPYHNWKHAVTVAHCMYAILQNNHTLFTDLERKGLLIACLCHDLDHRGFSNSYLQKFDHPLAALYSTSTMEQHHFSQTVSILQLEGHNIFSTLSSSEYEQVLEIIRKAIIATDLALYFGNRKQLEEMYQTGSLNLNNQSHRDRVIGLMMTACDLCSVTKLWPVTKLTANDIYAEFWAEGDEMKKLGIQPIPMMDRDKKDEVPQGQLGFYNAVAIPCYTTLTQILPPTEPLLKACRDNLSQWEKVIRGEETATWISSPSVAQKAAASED

Point of comparison: Cc1ccnc([C@H]2C[C@@H]2COc2nc(C)ncc2-c2ccc(C(C)(C)O)nc2)c1 (single isomer, unassigned) [Example 177], pKi 9.42. Against it:
- COc1cnccc1-c1cnc(C)nc1OC[C@H]1C[C@@H]1c1ccc(C)cn1 [Example 150, 5-(3-methoxypyridin-4-yl)-2-methyl-4-(((1S,2S)-2-(5-methylpyridin-2-yl)cyclopropyl)methoxy)pyrimidine] — within 0.2 log units, 9.33
- COc1cccc([C@H]2C[C@@H]2COc2nc(C)ncc2C2CCC3(CC2)OCCO3)n1 [Example 200, 4-(((1S,2S)-2-(6-methoxypyridin-2-yl)cyclopropyl)methoxy)-2-methyl-5-(1,4-dioxaspiro[4.5]decan-8-yl)pyrimidine] — 0.63 log units lower, 8.79
- COc1ccc([C@H]2C[C@@H]2COc2nc(C)ncc2-c2cc(=O)n(C)n2C)nc1 [Example 239, 5-(4-(((1S,2S)-2-(5-methoxypyridin-2-yl)cyclopropyl)methoxy)-2-methylpyrimidin-5-yl)-1,2-dimethyl-1,2-dihydropyrazol-3-one] — 1.31 log units lower, 8.11
- COc1ccc([C@H]2C[C@@H]2COc2nc(C)ncc2-c2ccc(-c3nn[nH]n3)cc2)nc1 [Example 222, 5-(4-(1H-tetrazol-5-yl)phenyl)-4-(((1S,2S)-2-(5-methoxypyridin-2-yl)cyclopropyl)methoxy)-2-methylpyrimidine] — 0.58 log units higher, 10.00
- Cc1ncc(-c2ccncc2)c(OC[C@H]2C[C@@H]2c2ccc3ccccc3n2)n1 (single isomer, unassigned) [Example 26] — 1.28 log units higher, 10.70
- Cc1ncc(C2(O)CCC3(CC2)OCCO3)c(OC[C@H]2C[C@@H]2c2ccc3ccccc3n2)n1 [Example 206, 8-(2-methyl-4-(((1S,2S)-2-(quinolin-2-yl)cyclopropyl)methoxy)pyrimidin-5-yl)-1,4-dioxaspiro[4.5]decan-8-ol] — 1.22 log units lower, 8.20
- CCC(O)c1ccc(-c2cnc(C)nc2OC[C@H]2C[C@@H]2c2ccc(C)cn2)cn1 (stereo partly drawn) [Example 144, 1-(5-(2-methyl-4-(((1S,2S)-2-(5-methylpyridin-2-yl)cyclopropyl)methoxy)pyrimidin-5-yl)pyridin-2-yl)propan-1-ol] — 0.28 log units lower, 9.14
- Cc1ncc(-c2cccnc2)c(OC[C@H]2C[C@@H]2c2ccc3ccccc3n2)n1 [Example 155, 2-((1S,2S)-2-((2-methyl-5-(pyridin-3-yl)pyrimidin-4-yloxy)methyl)cyclopropyl)quinoline] — 1.58 log units higher, 11.00
- CCc1ccc([C@H]2C[C@@H]2COc2nc(C)ncc2-c2ccc(C(C)(C)O)nc2)nc1 (single isomer, unassigned) [Example 180] — 1.19 log units lower, 8.23
- CCOC(=O)c1cnc(O)cc1-c1cnc(C)nc1OC[C@H]1C[C@@H]1c1ccc(OC)cn1 [Example 110, ethyl 6-hydroxy-4-(4-(((1S,2S)-2-(5-methoxypyridin-2-yl)cyclopropyl)methoxy)-2-methylpyrimidin-5-yl)nicotinate] — 2.04 log units lower, 7.38
- COc1ccc([C@H]2C[C@@H]2COc2nc(C)ncc2-c2cc(C#N)n(C)c2)nc1 [Example 113, 4-(4-(((1S,2S)-2-(5-methoxypyridin-2-yl)cyclopropyl)methoxy)-2-methylpyrimidin-5-yl)-1-methyl-1H-pyrrole-2-carbonitrile] — 0.37 log units lower, 9.05
- Cc1ccc([C@H]2C[C@@H]2COc2nc(C)ncc2-c2ccc3ncc(C)n3c2)nc1 [Example 130, 3-methyl-6-(2-methyl-4-(((1S,2S)-2-(5-methylpyridin-2-yl)cyclopropyl)methoxy)pyrimidin-5-yl)imidazo[1,2-a]pyridine] — within 0.2 log units, 9.41
- COc1ccc([C@H]2C[C@@H]2COc2nc(C)ncc2-c2ccc(S(C)(=O)=O)nc2)nc1 [Example 63, 4-(((1S,2S)-2-(5-methoxypyridin-2-yl)cyclopropyl)methoxy)-2-methyl-5-(6-(methylsulfonyl)pyridin-3-yl)pyrimidine] — 0.89 log units lower, 8.53
- COc1ccc(-c2cnc(C)nc2OC[C@H]2C[C@@H]2c2ccc3ccccc3n2)cc1 (single isomer, unassigned) [Example 28] — 0.58 log units higher, 10.00
- COCCOc1ccc(-c2cnc(C)nc2OC[C@H]2C[C@@H]2c2ccc(C)cn2)cn1 [Example 57, 5-(6-(2-methoxyethoxy)pyridin-3-yl)-2-methyl-4-(((1S,2S)-2-(5-methylpyridin-2-yl)cyclopropyl)methoxy)pyrimidine] — within 0.2 log units, 9.24
- Cc1ccc([C@H]2C[C@@H]2COc2nc(C)ncc2-c2ccc(C(C)O)nc2)nc1 (stereo partly drawn) [Example 149, 1-(5-(2-methyl-4-(((1S,2S)-2-(5-methylpyridin-2-yl)cyclopropyl)methoxy)pyrimidin-5-yl)pyridin-2-yl)ethanol] — 0.43 log units higher, 9.85
- COc1ccc([C@H]2C[C@@H]2COc2nc(C)ncc2-c2ccc(-c3nnnn3C(F)F)cc2)nc1 [Example 228, 5-(4-(1-(difluoromethyl)-1H-tetrazol-5-yl)phenyl)-4-(((1S,2S)-2-(5-methoxypyridin-2-yl)cyclopropyl)methoxy)-2-methylpyrimidine] — 0.73 log units lower, 8.69
- COc1ccc([C@H]2C[C@@H]2COc2nc(C)ncc2-c2c[nH]nn2)nc1 [Example 245, 4-(((1S,2S)-2-(5-methoxypyridin-2-yl)cyclopropyl)methoxy)-2-methyl-5-(1H-1,2,3-triazol-4-yl)pyrimidine] — 0.55 log units lower, 8.87
- COc1ccc([C@H]2C[C@@H]2COc2nc(C)ncc2C2CCC(=O)CC2)nc1 [Example 189, 4-(4-(((1S,2S)-2-(5-methoxypyridin-2-yl)cyclopropyl)methoxy)-2-methylpyrimidin-5-yl)cyclohexanone] — 0.99 log units lower, 8.43
- Cc1ncc(-c2ccc(C(C)(C)O)nc2)c(OC[C@H]2C[C@@H]2c2ncccc2C)n1 (single isomer, unassigned) [Example 174] — 1.35 log units lower, 8.07
- Cc1ccc([C@H]2C[C@@H]2COc2nc(C)ncc2C2CCC(F)(F)CC2)nc1 [Example 209, 5-(4,4-Difluorocyclohexyl)-2-methyl-4-(((1S,2S)-2-(5-methylpyridin-2-yl)cyclopropyl)methoxy)pyrimidine] — 1.50 log units lower, 7.92
- Cc1ccc([C@H]2C[C@@H]2COc2nc(C)ncc2-c2ccccc2OC(F)(F)F)nc1 [Example 5] — 0.92 log units lower, 8.50
- Cc1ccc([C@H]2C[C@@H]2COc2nc(C)ncc2C2=CCOCC2)nc1 [Example 51, 5-(3,6-dihydro-2H-pyran-4-yl)-2-methyl-4-(((1S,2S)-2-(5-methylpyridin-2-yl)cyclopropyl)methoxy)pyrimidine] — 0.71 log units lower, 8.71
- Cc1ncc(C2CCC3(CC2)OCCO3)c(OC[C@H]2C[C@@H]2c2ccc3ccccc3n2)n1 [Example 190, 2-((1S,2S)-2-((2-methyl-5-(1,4-dioxaspiro[4.5]decan-8-yl)pyrimidin-4-yloxy)methyl)cyclopropyl)quinoline] — 0.80 log units higher, 10.22
- COc1ccc([C@H]2C[C@@H]2COc2nc(C)ncc2-c2ccc(-c3nnnn3C)cc2)nc1 [Example 224, 4-(((1S,2S)-2-(5-methoxypyridin-2-yl)cyclopropyl)methoxy)-2-methyl-5-(4-(1-methyl-1H-tetrazol-5-yl)phenyl)pyrimidine] — 0.45 log units lower, 8.97
- CNC(=O)c1ccc(-c2cnc(C)nc2OC[C@H]2C[C@@H]2c2ccc(OC)cn2)cn1 [Example 103, 5-(4-(((1S,2S)-2-(5-methoxypyridin-2-yl)cyclopropyl)methoxy)-2-methylpyrimidin-5-yl)-N-methylpicolinamide] — 0.79 log units lower, 8.63
- COc1ccc([C@H]2C[C@@H]2COc2nc(C)ncc2-c2ccc(C3(O)CCCC3)nc2)nc1 [Example 89, 1-(5-(4-(((1S,2S)-2-(5-methoxypyridin-2-yl)cyclopropyl)methoxy)-2-methylpyrimidin-5-yl)pyridin-2-yl)cyclopentanol] — 0.80 log units higher, 10.22
- CCc1ccccc1-c1cnc(C)nc1OC[C@H]1C[C@@H]1c1ccc(C)cn1 [Example 8] — 0.93 log units lower, 8.49

Source: patent publication US9663513B2, “Pyrimidine PDE10 inhibitors” (Merck Sharp & Dohme Corp., priority 2012, dated 2017)
